In data set [1] the target is T1, Ubiquitin carboxyl-terminal hydrolase 8 (Homo sapiens) (UniProt P40818).
T1 sequence (whole entry): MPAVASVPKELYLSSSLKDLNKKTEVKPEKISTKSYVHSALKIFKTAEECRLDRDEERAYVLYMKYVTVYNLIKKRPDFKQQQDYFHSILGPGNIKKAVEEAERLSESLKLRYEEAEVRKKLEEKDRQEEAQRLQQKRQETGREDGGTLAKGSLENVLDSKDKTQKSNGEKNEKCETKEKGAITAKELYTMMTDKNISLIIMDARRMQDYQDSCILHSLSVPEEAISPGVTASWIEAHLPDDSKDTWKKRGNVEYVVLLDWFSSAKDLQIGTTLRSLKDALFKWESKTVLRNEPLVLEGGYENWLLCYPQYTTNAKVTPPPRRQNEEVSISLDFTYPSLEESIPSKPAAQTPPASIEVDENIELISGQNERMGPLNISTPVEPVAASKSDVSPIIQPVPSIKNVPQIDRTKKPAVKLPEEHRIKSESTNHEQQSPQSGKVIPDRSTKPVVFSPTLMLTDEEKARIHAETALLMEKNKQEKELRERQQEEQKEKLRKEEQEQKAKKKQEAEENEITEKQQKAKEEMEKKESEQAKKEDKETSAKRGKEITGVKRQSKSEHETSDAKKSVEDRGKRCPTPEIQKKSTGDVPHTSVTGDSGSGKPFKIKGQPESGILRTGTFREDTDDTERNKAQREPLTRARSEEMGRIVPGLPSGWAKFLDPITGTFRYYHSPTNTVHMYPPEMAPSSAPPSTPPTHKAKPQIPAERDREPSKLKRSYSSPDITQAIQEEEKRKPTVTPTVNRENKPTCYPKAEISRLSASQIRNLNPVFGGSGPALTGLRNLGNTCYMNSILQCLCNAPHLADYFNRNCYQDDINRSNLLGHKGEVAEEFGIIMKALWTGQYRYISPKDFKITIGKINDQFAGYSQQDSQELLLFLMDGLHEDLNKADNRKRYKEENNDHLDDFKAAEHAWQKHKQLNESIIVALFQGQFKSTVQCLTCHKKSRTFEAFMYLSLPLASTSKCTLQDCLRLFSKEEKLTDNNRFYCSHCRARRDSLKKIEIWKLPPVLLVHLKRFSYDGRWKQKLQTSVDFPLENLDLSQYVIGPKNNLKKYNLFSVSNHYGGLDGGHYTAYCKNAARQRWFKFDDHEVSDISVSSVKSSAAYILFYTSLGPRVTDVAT
As to the kind of experiment: Inhibition of N-terminal His-6 tagged USP8 (734 to 1110 residues) (unknown origin) expressed in Escherichia coli BL21 (DE3) cells at 100 nM measured after 3 hrs by fluorescence based Plate reader method relative to control. The conditions noted are these: values are per cent of control.

The target of data set [2] is T1, Ubiquitin carboxyl-terminal hydrolase 8 (Homo sapiens). As to the kind of experiment: Inhibition of N-terminal His-6 tagged USP8 (734 to 1110 residues) (unknown origin) expressed in Escherichia coli BL21 (DE3) cells at 10 nM measured after 3 hrs by fluorescence based Plate reader method relative to control. Particulars: values are per cent of control.
Data set [3] deals with T2, Ubiquitin thioesterase OTUB1 (Homo sapiens, UniProt Q96FW1). The data set is described as follows: Inhibition of N-terminal His-6 tagged OTUB1 (40 to 271 residues) (unknown origin) expressed in Escherichia coli BL21 (DE3) cells at 100 nM using Ub-Rho measured after 0.5 to 3 hrs by fluorescence based Plate reader method relative to control. Particulars: time 0.5-3 hrs, values are per cent of control.

The nature of data set [4]: Aqueous solubility of the compound measured after 24 hr by […] LC-MS/MS analysis. Format: physicochemical. Particulars: buffer.
In data set [5] the target is T2, Ubiquitin thioesterase OTUB1. The data set is described as follows: Inhibition of N-terminal His-6 tagged OTUB1 (40 to 271 residues) (unknown origin) expressed in Escherichia coli BL21 (DE3) cells at 10 nM using Ub-Rho measured after 0.5 to 3 hrs by fluorescence based Plate reader method relative to control. Particulars: time 0.5-3 hrs, values are per cent of control.

T2 sequence (Q96FW1 whole entry, the tested form may be a part): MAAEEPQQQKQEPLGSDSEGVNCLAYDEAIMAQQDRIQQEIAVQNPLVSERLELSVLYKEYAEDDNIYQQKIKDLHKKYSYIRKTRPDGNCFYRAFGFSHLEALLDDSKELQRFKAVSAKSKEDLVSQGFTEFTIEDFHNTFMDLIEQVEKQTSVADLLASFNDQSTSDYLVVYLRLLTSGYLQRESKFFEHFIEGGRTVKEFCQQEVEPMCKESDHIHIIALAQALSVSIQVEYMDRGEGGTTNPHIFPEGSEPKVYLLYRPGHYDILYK

Turning to `O=C1c2ccccc2C(=O)c2oc(-c3cccc(C(F)(F)F)c3)nc21`, the residual activity in data set [1] was 21.6%; in data set [2] it was 54.4%; in data set [3] it was 13.2%; in data set [5], 23.1%. Besides, the solubility entry in data set [4] is given as “Insoluble”.

Consider `N#Cc1ccc(-c2nc3c(o2)C(=O)c2ccccc2C3=O)cc1`, for which the residual activity in data set [1] was 20.8%; in data set [2] it was 38.9%; in data set [3] it was 15.2%; in data set [5], 46.4%. Also, the solubility result in data set [4] is listed as “Insoluble”.

For `CN1CCN(CCOc2ccc(Cl)c(-c3nc4c(o3)C(=O)c3ccccc3C4=O)c2F)CC1`, the residual activity in data set [1] came out at 32.6%; in data set [2], 33.1%; in data set [3] it was 7.2%; in data set [5], 14.4%. The solubility entry in data set [4] is on record as “Soluble”.

Regarding `CN1CC[C@@H](Oc2cccc(-c3nc4c(o3)C(=O)c3ccccc3C4=O)c2F)C1`, the residual activity is 38.6% in data set [1], 71.6% in data set [2], 41.3% in data set [3] and 76.7% in data set [5].

For the compound `CN1CCN(CCOc2cc(-c3nc4c(o3)C(=O)c3ccccc3C4=O)ccc2Cl)CC1`, the residual activity in data set [1] turned out to be 50.9%; in data set [2], 82%; in data set [3], 38.2%; in data set [5], 75.9%.

`COc1cc(F)cc(-c2nc3c(o2)C(=O)c2ccccc2C3=O)c1`: the residual activity in data set [1] worked out at 17.6%; in data set [2] it was 37.2%; in data set [3], 25.1%; in data set [5], 62.8%.

In the case of `O=C1c2ccccc2C(=O)c2oc(-c3cc(Cl)ccc3Cl)nc21`, the residual activity in data set [1] was found to be 32.2%; in data set [2], 44.5%; in data set [3], 25.2%; in data set [5], 52.7%.

For the compound `O=C1c2ccccc2C(=O)c2[nH]c(-c3ccccc3)nc21`, the residual activity in data set [1] amounted to 92.5%; in data set [2], 92.5%; in data set [3], 78.3%; in data set [5], 84.3%.

With `COc1cc(-c2nc3c(o2)C(=O)c2ccccc2C3=O)ccc1C`, the residual activity in data set [1] turned out to be 56.7%; in data set [2] it was 57.9%; in data set [3], 59.9%; in data set [5], 70.8%.

As for `CN1CC[C@@H](Oc2cc(Cl)cc(-c3nc4c(o3)C(=O)c3ccccc3C4=O)c2)C1`, the residual activity came to 34.2% in data set [1], 59.3% in data set [2], 41.5% in data set [3] and 75% in data set [5].

For the compound `Cc1ccccc1-c1nc2c(o1)C(=O)c1ccccc1C2=O`, the residual activity in data set [1] came out at 38.1%; in data set [2], 63.6%; in data set [3], 48.4%; in data set [5] it was 66.4%.

On to `COc1c(Cl)ccc(Cl)c1-c1nc2c(o1)C(=O)c1ccccc1C2=O`, for which the residual activity in data set [1] was determined as 35.6%; in data set [2] it was 56.9%; in data set [3], 42.4%; in data set [5], 69.4%.

Turning to `CN1CC[C@@H](Oc2ccc(-c3nc4c(o3)C(=O)c3ccccc3C4=O)c(Cl)c2)C1`, the residual activity in data set [1] came out at 34.7%; in data set [2], 58.9%; in data set [3], 35.1%; in data set [5], 70.9%.

Turning to `O=C1c2ccccc2C(=O)c2oc(-c3ccc(F)cc3Cl)nc21`, the residual activity was 37.4% in data set [1], 28.5% in data set [2], 23.5% in data set [3] and 47.6% in data set [5].

Consider `O=C1c2ccccc2C(=O)c2oc(-c3c(F)cccc3Cl)nc21`, for which the residual activity stood at 26.5% in data set [1], 62.9% in data set [2], 9.6% in data set [3] and 37.3% in data set [5]. Besides, the solubility result in data set [4] is “Insoluble”.

`O=C1c2ccccc2C(=O)c2oc(-c3c(F)ccc(F)c3Cl)nc21`: the residual activity in data set [1] came out at 28.4%; in data set [2], 52.4%; in data set [3] it was 10.4%; in data set [5] it was 23.3%. The solubility result in data set [4] was “Insoluble”.

Consider `O=C1c2ccccc2C(=O)c2oc(-c3c(F)ccc(F)c3F)nc21`, for which the residual activity was determined as 21.9% in data set [1], 36.6% in data set [2], 15.6% in data set [3] and 40.7% in data set [5].

`COc1ccc(F)c(-c2nc3c(o2)C(=O)c2ccccc2C3=O)c1Cl`: the residual activity in data set [1] is 23.6%; in data set [2] it was 41.5%; in data set [3], 20.5%; in data set [5], 23.3%.

In the case of `O=C1c2ccccc2C(=O)c2oc(-c3ccccc3C(F)(F)F)nc21`, the residual activity in data set [1] was 17.7%; in data set [2] it was 50.7%; in data set [3], 25.8%; in data set [5], 62.6%.

In the case of `CN1CC[C@@H](Oc2cc(-c3nc4c(o3)C(=O)c3ccccc3C4=O)ccc2Cl)C1`, the residual activity in data set [1] turned out to be 24.9%; in data set [2] it was 51.8%; in data set [3] it was 12.8%; in data set [5], 23.6%. The solubility result in data set [4] is “Soluble”.

Regarding `COc1ccc(F)c(-c2nc3c(o2)C(=O)c2ccccc2C3=O)c1`, the residual activity in data set [1] came out at 33.1%; in data set [2] it was 61.1%; in data set [3] it was 31.2%; in data set [5] it was 75%.

`O=C1c2ccccc2C(=O)c2oc(-c3c(F)cccc3F)nc21`: the residual activity in data set [1] came out at 37.4%; in data set [2] it was 39.1%; in data set [3] it was 24%; in data set [5], 56.2%.

Regarding `O=C1c2ccccc2C(=O)c2oc(-c3cccc(F)c3)nc21`, the residual activity in data set [1] was 37.2%; in data set [2], 59.1%; in data set [3] it was 26.3%; in data set [5], 55.3%.

As for `O=C1c2ccccc2C(=O)c2oc(-c3c(Cl)cccc3Cl)nc21`, the residual activity was determined as 24.9% in data set [1], 44.6% in data set [2], 21% in data set [3] and 52.4% in data set [5].

For `O=C1c2ccccc2C(=O)c2oc(-c3ccc(F)cc3)nc21`, the residual activity worked out at 23.3% in data set [1], 53.5% in data set [2], 24.6% in data set [3] and 55.8% in data set [5].

`O=C1c2ccccc2C(=O)c2oc(-c3ccccc3F)nc21`: the residual activity in data set [1] came out at 19.2%; in data set [2], 37.1%; in data set [3], 27.3%; in data set [5] it was 55.5%.

Take `CN1CC[C@@H](Oc2ccc(-c3nc4c(o3)C(=O)c3ccccc3C4=O)cc2Cl)C1`: the residual activity in data set [1] turned out to be 31.2%; in data set [2], 65.5%; in data set [3] it was 38.5%; in data set [5], 69.8%.

As to `O=C1c2ccccc2C(=O)c2oc(-c3c(F)c(F)cc(F)c3F)nc21`, the residual activity in data set [1] is 24.1%; in data set [2], 38.3%; in data set [3], 14.1%; in data set [5], 39.4%.

For `O=C1c2ccccc2C(=O)c2oc(-c3ccccc3[N+](=O)[O-])nc21`, the residual activity worked out at 21.6% in data set [1], 51.1% in data set [2], 19% in data set [3] and 47.2% in data set [5].

Regarding `COc1ccc(Cl)c(-c2nc3c(o2)C(=O)c2ccccc2C3=O)c1F`, the residual activity in data set [1] was 20.4%; in data set [2], 74.1%; in data set [3], 26.3%; in data set [5], 48.7%.

`COc1cccc(-c2nc3c(o2)C(=O)c2ccccc2C3=O)c1F`: the residual activity in data set [1] turned out to be 25.5%; in data set [2] it was 42.6%; in data set [3], 22.4%; in data set [5] it was 52.9%.

A word on the residual activity: it is the share of the control activity or signal that is left under treatment. Lower therefore signals little activity left.
